Reference: patent US20160251289A1, “USE OF ALKANE SULFONIC ACID FOR PREPARING PHENOLIC ALCOHOL” (ARKEMA FRANCE, priority 2013, published 2016)
Read-outs that look alike come from different tables or passages of the source.

How the values were obtained:
[1] = for Solubility (mass %): phenol/water (95/5) weight mixture; for times more soluble than potassium sulfate: phenol/water (95/5)
Procedure: Solubility of the Salts in a Phenol/Water (95/5) Weight Mixture:
A first measurement is taken at 55° C. at atmospheric pressure, and a second measurement is then taken at 100° C.

[2] = for Solubility (mass %): phenol/acetone/water (50/50/5) weight mixture; for times more soluble than potassium sulfate: phenol/acetone/water (50/50/5)
Procedure: 25 g of test solvent are placed in a 50 mL three-necked flask equipped with a condenser, a thermometer and a magnetic stirrer. The solvent is brought to the desired temperature and the alkanesulfonic acid salt is then added portionwise until cloudiness appears, indicating saturation of the medium.
The solubility is calculated in the following manner:
% salt solubility=m/(m+M)×100
with m=mass of dissolved salt, M=mass of solvent
1. Solubility of the Salts in a Phenol/Acetone/Water (50/50/5) Weight Mixture:
A first measurement is taken at 20° C. at atmospheric pressure, and a second measurement is then taken at 60° C. […] 1.1 Potassium Salts

## CS(=O)(=O)[O-].[K+] [CH3SO3K, potassium methanesulfonate]
[1]; 55° C., atmospheric pressure
  Solubility (mass %): 1.90% mass %
[1]; 100° C.
  Solubility (mass %): 2.40% mass %
[1]; printed as at 20° C.
  times more soluble than potassium sulfate: 15 times
[1]; printed as at 60° C.
  times more soluble than potassium sulfate: 8 times
[2]; 20° C., atmospheric pressure
  Solubility (mass %): 0.80% mass %
[2]; 60° C.
  Solubility (mass %): 0.80% mass %
[2]; at 20° C.
  times more soluble than potassium sulfate: more than 6.7 times
[2]; at 60° C.
  times more soluble than potassium sulfate: more than 6.7 times
